Assays:
ACE = ACE (Homo sapiens, UniProt P12821); test: ACE inhibition, spectrophotometric enzyme assay; assay type: biochemical; conditions: spectrophotometric substrate of Holmquist et al., buffer system of Ryan
Text: The enzymatic activity of ACE is monitored using the spectrophotometric substrate described by Holmquist et al. [Anal.Biochem. 95, 540-548 (1979)] and the buffer system described by Ryan [Methods of Enzymatic Analysis, 3rd ed., H. U. Bergmeyer, editor; vol. V, Verlag Chemie, Weinheim, 1983, pp. 20-34].

Enkephalinase = molecular target: T1, Enkephalinase (Rattus norvegicus, UniProt P07861); test: Enkephalinase inhibition, fluorometric enzyme assay; assay type: biochemical; conditions: enzyme partially purified from rat kidney; 12 µM dansyl-D-AlaGly(p-nitro)PheGly, 50mM HEPES buffer (pH 7.4), 25°C
T1 construct: The enzyme is extracted from the microvilli fraction by using Triton X-100; from tissue; host or cells: rat kidney, microvilli fraction
T1 sequence (P07861 1-750): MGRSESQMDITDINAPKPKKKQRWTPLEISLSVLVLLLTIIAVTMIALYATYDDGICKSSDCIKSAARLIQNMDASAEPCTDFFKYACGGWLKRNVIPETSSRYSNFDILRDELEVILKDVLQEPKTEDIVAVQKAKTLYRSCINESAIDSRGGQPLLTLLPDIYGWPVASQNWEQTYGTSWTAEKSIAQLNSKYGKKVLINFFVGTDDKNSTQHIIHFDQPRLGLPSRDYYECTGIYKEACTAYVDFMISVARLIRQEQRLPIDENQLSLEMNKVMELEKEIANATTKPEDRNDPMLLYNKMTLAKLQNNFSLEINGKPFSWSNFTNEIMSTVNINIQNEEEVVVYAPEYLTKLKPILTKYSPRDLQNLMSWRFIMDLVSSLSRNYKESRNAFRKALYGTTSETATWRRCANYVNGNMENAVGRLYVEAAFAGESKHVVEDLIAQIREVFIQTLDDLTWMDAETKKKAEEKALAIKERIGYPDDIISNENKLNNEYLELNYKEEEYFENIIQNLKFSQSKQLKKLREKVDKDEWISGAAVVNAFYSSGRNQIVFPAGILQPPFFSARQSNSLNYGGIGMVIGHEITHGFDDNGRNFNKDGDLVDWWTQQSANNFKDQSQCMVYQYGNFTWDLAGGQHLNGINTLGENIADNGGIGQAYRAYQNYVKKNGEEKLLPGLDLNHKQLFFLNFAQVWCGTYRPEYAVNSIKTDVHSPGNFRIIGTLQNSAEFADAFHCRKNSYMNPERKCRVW
Text: Enkephalinase is partially purified from rat kidney. The enzyme is extracted from the microvilli fraction by using Triton X-100 according to the method of Malfroy and Schwartz [J.Biol.Chem. 259, 14365-14370 (1984)] or by using proteolytic treatment according to the method of Almenoff and Orlowski [Biochem. 22, 590-599 (1983)]. The enzyme is further purified by anion exchange chromatography (Mono QTM column, Pharmacia) using a Pharmacia FPLC system. The enzyme activity may be measured by the fluorometric methods of Florentin et al. [Anal.Biochem. 141, 62-69 (1984)] or of Almenoff and Orlowski [J.Neurochemistry 42, 151-157 (1984)]. […] The substrate (and inhibitor) is added from a concentrated stock soluticn in DMSO (up to 0.1 mL DMSO final volume). The enzyme in a small volume (approximately 0.1 μg of FPLC purified protein) is added to initiate the reaction and the rate of fluorescense increase is recorded continuously using a fluorometer (excitation at 339nm, emission at 562nm).

ACE, sequence (P12821 30-1306, species assumed): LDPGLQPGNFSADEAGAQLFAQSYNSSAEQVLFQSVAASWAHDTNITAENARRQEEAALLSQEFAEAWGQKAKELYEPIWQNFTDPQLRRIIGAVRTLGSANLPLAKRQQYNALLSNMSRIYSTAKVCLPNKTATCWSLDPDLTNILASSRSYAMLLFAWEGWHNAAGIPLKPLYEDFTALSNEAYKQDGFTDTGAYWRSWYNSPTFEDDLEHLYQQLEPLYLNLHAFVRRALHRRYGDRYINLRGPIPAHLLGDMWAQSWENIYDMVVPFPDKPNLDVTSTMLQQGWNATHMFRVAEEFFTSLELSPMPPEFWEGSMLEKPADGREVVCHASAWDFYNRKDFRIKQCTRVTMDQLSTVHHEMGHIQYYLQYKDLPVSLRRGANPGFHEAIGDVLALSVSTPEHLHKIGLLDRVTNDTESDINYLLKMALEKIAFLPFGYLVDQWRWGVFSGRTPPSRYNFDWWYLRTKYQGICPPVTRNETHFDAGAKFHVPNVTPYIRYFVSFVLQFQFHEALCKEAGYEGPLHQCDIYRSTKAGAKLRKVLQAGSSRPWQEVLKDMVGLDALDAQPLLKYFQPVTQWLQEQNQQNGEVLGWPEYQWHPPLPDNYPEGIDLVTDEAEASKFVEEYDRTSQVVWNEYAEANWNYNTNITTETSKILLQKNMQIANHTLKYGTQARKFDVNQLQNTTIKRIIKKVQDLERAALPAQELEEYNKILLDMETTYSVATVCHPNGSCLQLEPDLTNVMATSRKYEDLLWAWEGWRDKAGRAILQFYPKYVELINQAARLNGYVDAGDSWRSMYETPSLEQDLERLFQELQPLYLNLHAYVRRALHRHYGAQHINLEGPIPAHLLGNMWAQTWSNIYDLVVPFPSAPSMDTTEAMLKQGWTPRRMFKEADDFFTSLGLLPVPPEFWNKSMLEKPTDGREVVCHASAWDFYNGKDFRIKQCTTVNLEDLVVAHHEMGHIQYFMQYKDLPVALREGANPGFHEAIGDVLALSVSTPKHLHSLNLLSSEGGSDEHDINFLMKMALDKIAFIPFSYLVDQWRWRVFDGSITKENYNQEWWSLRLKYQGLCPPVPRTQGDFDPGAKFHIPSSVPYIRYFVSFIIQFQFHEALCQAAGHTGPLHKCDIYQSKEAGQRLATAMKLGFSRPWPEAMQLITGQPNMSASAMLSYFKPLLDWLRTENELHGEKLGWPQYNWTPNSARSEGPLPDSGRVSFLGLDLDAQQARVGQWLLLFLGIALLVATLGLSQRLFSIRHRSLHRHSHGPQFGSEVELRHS

Structure (SMILES)	Ki (ACE)	Ki (Enkephalinase)
O=C(CS)N[C@H]1Cc2ccccc2[C@H]2CCC[C@@H](C(=O)O)N2C1=O (relative stereo) [27,855, [4S-[4α, 7α(R*), 12bβ]]-7-[(1-oxo-2-thio-ethyl)amino]-1,2,3,4,6,7,8,12b-octahydro-6-oxo-pyrido[2,1-a][2]benzazepine-4-carboxylic acid]	5 nM	8 nM
O=C(N[C@H]1Cc2ccccc2[C@H]2CC[C@@H](C(=O)O)N2C1=O)[C@H](S)Cc1ccccc1 (relative stereo) [100,919, [6α(R*), 11bβ]-6-[(S)-(1-oxo-2(R)-thio-3-phenylpropyl)amino]-1,2,3,5,6,7,11b-heptahydro-5-oxo-pyrrolo[2,1-a][2]benzazepine-3(S)-carboxylic acid]	1 nM	< 1 nM
O=C(N[C@H]1Cc2ccccc2[C@H]2COC[C@@H](C(=O)O)N2C1=O)[C@@H](S)Cc1ccccc1 (relative stereo) [101,519, [4S-[4α, 7α(R*), 12bβ]]-7-[(1-Oxo-2(S)-thio-3-phenylpropyl)amino]-1,2,3,4,6,7,8,12b-hexahydro-6-oxo-1 H-[1,4]-oxazino[3,4-a][2]benzazepine-4-carboxylic acid]	< 7 nM	< 1 nM
CC(=O)S[C@@H](Cc1ccccc1)C(=O)N[C@H]1Cc2ccccc2[C@H]2COC[C@@H](C(=O)O)N2C1=O (relative stereo) [102,179, [4S-[4α, 7α(R*), 12bβ]]-7-[(1-Oxo-2(S)-acetylthio-3-phenylpropyl)amino]-1,2,3,4,6,7,8,12b-hexahydro-6-oxo-1H-[1,4]oxazino[3,4-a][2]benzazepine-4-carboxylic acid]	< 7 nM	< 1 nM

Continued by falling Ki (ACE), values first:

Ki (ACE)	Ki (Enkephalinase)	Structure (SMILES)
6.7 nM	< 1 nM	O=C(N[C@H]1Cc2ccccc2[C@H]2CCC[C@@H](C(=O)O)N2C1=O)[C@H](S)Cc1ccccc1 (relative stereo) [101,628, [4S-[4α, 7α(R*), 12bβ]]-7-[(1-Oxo-2(R)-thio-3-phenylpropyl)amino]-1,2,3,4,6,7,8,12b-octahydro-6-oxo-pyrido[2,1-a][2]benzazepine-4-carboxylic acid]
2.1 nM	1 nM	O=C(N[C@H]1Cc2ccccc2[C@H]2CCC[C@@H](C(=O)O)N2C1=O)C(S)c1ccccc1 (relative stereo) [101,804, [4S-[4α, 7α(R*), 12bβ]]-7-[(1-Oxo-2-thio-2-phenylethyl)amino]-1,2,3,4,6,7,8,12b-octahydro-6-oxo-pyrido[2,1-a][2]benzazepine-4-carboxylic acid]
0.74 nM	< 1 nM	O=C(N[C@H]1Cc2ccccc2[C@H]2CCC[C@@H](C(=O)O)N2C1=O)[C@@H](S)Cc1ccccc1 (relative stereo) [100,173, [4S-[4α, 7α(R*), 12bβ]]-7-[(1-oxo-2(S)-thio-3-phenylpropyl)amino]-1,2,3,4,6,7,8,12b-octahydro-6-oxo-pyrido[2,1-a][2]benzazepine-4-carboxylic acid]

From patent EP0481522B1, “Novel mercaptoacetylamide derivatives useful as inhibitors of enkephalinase and ace” (MERRELL PHARMACEUTICALS INC., priority 1990, dated 1992)
